Assay results taken from patent publication US20120173160A1, “METHODS AND SYSTEMS FOR QUANTITATIVELY ASSESSING BIOLOGICAL EVENTS USING ENERGY-PAIRED SCORING” (The Trustees of the University of Pennsylvania, priority 2010, published 2012).
Entries after “also recorded” stand apart in the source; their conditions may differ.

Key:
Assay type in all cases: cell-based
Akt-mTOR pathway = experiment: EPS Akt-mTOR pathway score in expression data set of cells treated with 1294 compounds; conditions: screen of 1294 compounds, strongest negative pathway scores
Description: A potential application of EPS is to identify inhibitors of a selected pathway by searching for compounds that induce gene expression changes with a strongly negative pathway score. To test EPS's ability to identify small-molecule inhibitors of a pathway from a large library of compounds, an Akt-mTOR pathway signature was developed using gene expression profiles from the prostates of transgenic mice expressing activated Akt that were treated with either the mTOR inhibitor RAD001 or a vehicle control (Majumder et al.). This signature was used to estimate Akt-mTOR pathway activity in a data set derived from three cell lines that had been treated with 1294 different compounds (Lamb et al.). […] In fact, test samples treated with LY-294002 represented 8 of the top 9 samples identified (FIG. 11A).

TGFβ pathway [1] = experiment: EPS estimate of TGFβ pathway activity from gene expression of NMuMG cells treated with TGF-β1
Description: (§1) To determine whether EPS could quantitatively estimate dose-dependent increases in TGFβ pathway activity using gene expression data, EPS prediction was compared to biochemical analysis of phospho-Smad2 levels in the same samples. Using a previously published TGFβ signature generated from NMuMG cells treated with TGF-β1 for 24 hours, it was determined whether SVD or EPS could detect pathway activation in NMuMG cells treated with increasing doses of TGF-β1. SVD detected pathway activation only in samples treated with the highest dose of TGFβ (15 ng/ml; FIG. 6B).
As expected from increasing TGFβ effects on mRNA levels over time, EPS predicted higher pathway activity in training set samples treated with TGF-β1 for 24 hours than in test samples treated with TGF-β1 for 6 hours. […] Therefore, a TGFβ signature was generated using NMuMG cells treated with the lowest dose of TGFβ (0.15 ng/ml) for the shortest period of time (6 hrs) as the training set. This signature was then used to test the ability of SVD and EPS to predict pathway activation at different TGFβ doses.

TGFβ pathway [2] = experiment: Western blot of Smad2 phosphorylation in NMuMG cells treated with TGF-β1; conditions: NMuMG cells, 0.15, 0.5, 1.5 or 15 ng/ml, 6 hours
Description: To determine whether EPS could quantitatively estimate signal pathway activity in a biological data set, a genome-wide expression data set was generated to reflect graded increases in TGFβ pathway activation by treating the mammary epithelial cell line, NMuMG, with increasing dosages of TGF-β1 for 6 hours. Signature genes were selected using a p-value of 10^−10 associated with the changes in expression without fold-change cutoff.
as §1

| Molecule | test samples treated with the compound among the top 9 samples identified (Akt-mTOR pathway) | EPS-predicted TGFβ pathway activation, signature from 24 hours treatment (TGFβ pathway [1]; NMuMG cells, 0.5, 1.5 and 15 ng/ml, 6 hours) | EPS-estimated TGFβ pathway activation, signature from 0.15 ng/ml for 6 hrs (TGFβ pathway [1]; NMuMG cells, increasing doses (0.5, 1.5, 15 ng/ml)) | TGFβ pathway activity as levels of phosphorylated Smad2 (TGFβ pathway [2]) |
| --- | --- | --- | --- | --- |
| O=c1cc(N2CCOCC2)oc2c(-c3ccccc3)cccc12 [LY-294002] | 8 | – | – | – |
| TGF-β1: TGF-β1 used to treat the mammary epithelial cell line NMuMG | – | significantly increased pathway activation | progressive increase of TGFβ pathway activation | dose-dependent increase in TGFβ pathway activity; also recorded: elevated phospho-Smad2 was detected at all doses |
